Results as given in patent EP3436445B1, “HISTONE DEMETHYLASE INHIBITORS” (Celgene Quanticel Research, Inc., priority 2016, dated 2017).

How the values were obtained:
JMJD3 = biological target: T1, JMJD3 (Homo sapiens, UniProt O15054); assay: JMJD3 in vitro enzyme inhibition assay (AlphaScreen); format: biochemical; details: Table 5; 1 nM JMJD3, H3K27me3-biotin labeled peptide
T1 construct: purchased BPS Bioscience 50115
From the text: (§1) This assay determines the ability of a test compound to inhibit Jarid1B, JMJD2C and JMJD3 demethylase activity. Baculovirus expressed Jarid1B (GenBank Accession #NM-006618, AA 2-751) was purchased from BPS Bioscience (Cat #50121) or custom made by MolecularThroughput. Baculovirus expressed JMJD2C (GenBank Accession #BC143571, AA 2-372) was purchased from BPS Bioscience (Cat#50105). Baculovirus expressed JMJD3 (GenBank Accession #NM-001080424, AA1043-end) was purchased from BPS Bioscience (Cat#50115).
The ability of test compounds to inhibit the activity of JMJD3 was determined in 384-well plate format under the following reaction conditions: 1 nM JMJD3, 250 nM H3K27me3-biotin labeled peptide (Anaspec cat # 64367), 1 µM alpha-ketoglutaric acid in assay buffer of 50 mM HEPES, pH7.3, 0.005% Brij35, 0.5 mM TCEP, 0.2 mg/ml BSA, 50 µM sodium L-ascorbate, 5 µM ammonium iron(II) sulfate. Reaction product is determined quantitatively by AlphaScreen detection after the addition of detection reagents anti-H3K27me1 antibody, 5 µg/ml AlphaScreen® Streptavidin-coated Donor beads, and 5 µg/ml AlphaScreen® Protein A Acceptor beads in 50 mM HEPES, pH7.3, 10 mM NaCl, 0.005% Brij35, 10 mM EDTA, 2 mg/ml BSA.
The assay reaction was initiated by the following: 3 µl of the mixture of 750 nM H3K27me3-biotin labeled peptide and 3 µM alpha-ketoglutaric acid with 3 µl of 11-point serial diluted inhibitor in 3% DMSO are added to each well of 384 well Proxiplate (Perkin Elmer), followed by the addition of 3 µl of 3 nM JMJD3 to initiate the reaction. The reaction mixture is incubated at room temperature for 20 minutes, and terminated by the addition of 3 µl of appropriate dilution of anti H3K27me1 antibody in 50 mM HEPES, pH7.3, 10 mM NaCl, 0.005% Brij35, 10 mM EDTA, 2 mg/ml BSA. Plates will then incubated at room temperature for 1 hour, followed by addition of 3 µl of 25 µg/ml AlphaScreen® Streptavidin-coated Donor beads and AlphaScreen® Protein A Acceptor beads in 50 mM HEPES, pH7.3, 10 mM NaCl, 0.005% Brij35, 10 mM EDTA, 2 mg/ml BSA. Plates will then be read by EnVision Multilabel Reader in AlphaScreen mode after minimum 2 hour incubation at room temperature. The AlphaScreen signal for each well is used to determine inhibition constant (IC50).

JMJD2C = biological target: T2, JMJD2C (Homo sapiens, UniProt Q9H3R0); assay: JMJD2C in vitro enzyme inhibition assay (TR-FRET); format: biochemical; details: Table 5; 0.3 nM JMJD2C, H3K9me3-biotin labeled peptide
T2 construct: purchased BPS Bioscience 50105
T2 sequence (Q9H3R0 2-372): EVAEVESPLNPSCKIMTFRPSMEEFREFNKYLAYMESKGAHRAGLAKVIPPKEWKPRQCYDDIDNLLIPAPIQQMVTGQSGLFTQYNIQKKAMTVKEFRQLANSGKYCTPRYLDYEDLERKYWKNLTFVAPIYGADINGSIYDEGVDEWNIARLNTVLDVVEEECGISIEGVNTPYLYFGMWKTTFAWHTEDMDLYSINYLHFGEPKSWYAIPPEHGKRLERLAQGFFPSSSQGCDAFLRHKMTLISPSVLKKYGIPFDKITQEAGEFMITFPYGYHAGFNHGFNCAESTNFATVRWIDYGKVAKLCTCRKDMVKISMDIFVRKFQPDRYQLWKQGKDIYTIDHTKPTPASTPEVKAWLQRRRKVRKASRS
From the text: as §1
The ability of test compounds to inhibit the activity of JMJD2C was determined in 384-well plate format under the following reaction conditions: 0.3 nM JMJD2C, 300 nM H3K9me3-biotin labeled peptide (Anaspec cat #64360), 2 µM alpha-ketoglutaric acid in assay buffer of 50 mM HEPES, pH7.3, 0.005% Brij35, 0.5 mM TCEP, 0.2 mg/ml BSA, 50 µM sodium L-ascorbate, and 2 µM ammonium iron(II) sulfate. Reaction product was determined quantitatively by TR-FRET after the addition of detection reagent Phycolink Streptavidin-allophycocyanin (Prozyme) and Europium-anti-di-methylated histone H3 lysine 9 (H3K9me2) antibody (PerkinElmer) in the presence of 5 mM EDTA in LANCE detection buffer (PerkinElmer) at a final concentration of 50 nM and 1 nM, respectively.
The assay reaction was initiated by the following: 2 µl of the mixture of 900 nM H3K9me3-biotin labeled peptide and 6 µM alpha-ketoglutaric acid with 2 µl of 11-point serial diluted inhibitor in 3% DMSO were added to each well of the plate, followed by the addition of 2 µl of 0.9 nM JMJD2C to initiate the reaction. The reaction mixture was incubated at room temperature for 30 minutes, and terminated by the addition of 6 µl of 5 mM EDTA in LANCE detection buffer containing 100 nM Phycolink Streptavidin-allophycocyanin and 2 nM Europium-anti-H3K9me2 antibody. Plates were read by EnVisionMultilabel Reader in TR-FRET mode (excitation at 320 nm, emission at 615 nm and 665 nm) after 1 hour incubation at room temperature. A ratio was calculated (665/615) for each well and fitted to determine inhibition constant (IC50).

T1 sequence (O15054 1043-1682 isoform O15054-1): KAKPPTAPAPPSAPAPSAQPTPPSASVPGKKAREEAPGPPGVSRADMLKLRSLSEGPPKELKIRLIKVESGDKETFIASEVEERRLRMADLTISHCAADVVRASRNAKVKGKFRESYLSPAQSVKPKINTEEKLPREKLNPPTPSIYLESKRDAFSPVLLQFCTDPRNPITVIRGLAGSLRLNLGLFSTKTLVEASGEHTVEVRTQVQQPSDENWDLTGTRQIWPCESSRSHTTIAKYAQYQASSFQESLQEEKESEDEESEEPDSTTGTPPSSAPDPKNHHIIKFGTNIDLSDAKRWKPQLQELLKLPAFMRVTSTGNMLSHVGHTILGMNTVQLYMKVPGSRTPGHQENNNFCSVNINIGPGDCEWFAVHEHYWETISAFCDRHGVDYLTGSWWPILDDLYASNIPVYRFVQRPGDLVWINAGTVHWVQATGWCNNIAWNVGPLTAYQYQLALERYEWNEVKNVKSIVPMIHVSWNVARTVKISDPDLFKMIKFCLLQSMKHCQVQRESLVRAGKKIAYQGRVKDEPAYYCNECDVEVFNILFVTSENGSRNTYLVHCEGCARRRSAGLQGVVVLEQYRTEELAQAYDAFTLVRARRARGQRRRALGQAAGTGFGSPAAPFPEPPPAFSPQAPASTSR

Row | SMILES | IC50 (JMJD3) [µM] | IC50 (JMJD2C) [µM]
1 | Fc1cccc(Cl)c1CCn1cnc(-c2cc(-c3nn[nH]c3C(F)(F)F)ccn2)c1 [Example 80, 2-{1-[2-(2-chloro-6-fluorophenyl)ethyl]-1H-imidazol-4-yl}-4-[5-(trifluoromethyl)-1H-1,2,3-triazol-4-yl]pyridine] | > 10 | > 10
2 | COc1ccc2c(c1)CCCC2Cn1cnc(-c2cc(-c3nn[nH]c3C(F)(F)F)ccn2)c1 (stereo not shown) [Example 105, 2-{1-[(6-methoxy-1,2,3,4-tetrahydronaphthalen-1-yl)methyl]-1H-imidazol-4-yl}-4-[5-(trifluoromethyl)-1H-1,2,3-triazol-4-yl]pyridine] | > 10 | > 10
3 | FC(F)(F)c1[nH]nnc1-c1ccnc(-c2cn(Cc3ccc(Cl)cc3)cn2)c1 [Example 63, 2-{1-[(4-chlorophenyl)methyl]-1H-imidazol-4-yl}-4-[5-(trifluoromethyl)-1H-1,2,3-triazol-4-yl]pyridine] | > 10 | > 10
4 | O=C(c1ccccc1)N1CCC[C@H](n2cnc(-c3cc(-c4nn[nH]c4C(F)(F)F)ccn3)c2)C1 [Example 90, 2-{1-[(3S)-1-benzoylpiperidin-3-yl]-1H-imidazol-4-yl}-4-[5-(trifluoromethyl)-1H-1,2,3-triazol-4-yl]pyridine] | > 10 | > 10
5 | Cc1ccc(CCn2cnc(-c3cc(-c4nn[nH]c4C(F)(F)F)ccn3)c2)cc1 [Example 91, 2-{1-[2-(4-methylphenyl)ethyl]-1H-imidazol-4-yl}-4-[5-(trifluoromethyl)-1H-1,2,3-triazol-4-yl]pyridine] | > 10 | > 10
6 | FC(F)(F)c1[nH]nnc1-c1ccnc(-c2cn(CCc3ccccc3Cl)cn2)c1 [Example 57] | > 10 | > 10
7 | Fc1cccc(F)c1CCn1cnc(-c2cc(-c3nn[nH]c3C(F)(F)F)ccn2)c1 [Example 87, 2-{1-[2-(2,6-difluorophenyl)ethyl]-1H-imidazol-4-yl}-4-[5-(trifluoromethyl)-1H-1,2,3-triazol-4-yl]pyridine] | > 10 | > 10
8 | Fc1cccc(F)c1Cn1cnc(-c2cc(-c3nn[nH]c3C(F)(F)F)ccn2)c1 [Example 69, 2-{1-[(2,6-difluorophenyl)methyl]-1H-imidazol-4-yl}-4-[5-(trifluoromethyl)-1H-1,2,3-triazol-4-yl]pyridine] | > 10 | > 10
9 | CC(c1ccccc1)n1cnc(-c2cc(-c3nn[nH]c3C(F)(F)F)ccn2)c1 (stereo not shown) [Example 73, 2-[1-(1-phenylethyl)-1H-imidazol-4-yl]-4-[5-(trifluoromethyl)-1H-1,2,3-triazol-4-yl]pyridine] | > 10 | > 10
10 | Fc1cccc2c1CCCC2Cn1cnc(-c2cc(-c3nn[nH]c3C(F)(F)F)ccn2)c1 (stereo not shown) [Example 99, 2-{1-[(5-fluoro-1,2,3,4-tetrahydronaphthalen-1-yl)methyl]-1H-imidazol-4-yl}-4-[5-(trifluoromethyl)-1H-1,2,3-triazol-4-yl]pyridine] | > 10 | > 10
11 | Fc1ccccc1Cn1cnc(-c2cc(-c3nn[nH]c3C(F)(F)F)ccn2)c1 [Example 62, 2-{1-[(2-fluoroprtenyl)methyl]-1H-imidazol-4-yl}-4-[5-(trifluoromethyl)-1H-1,2,3-triazol-4-yl]pyridine] | > 10 | > 10
12 | Fc1ccc2c(c1)C(Cn1cnc(-c3cc(-c4nn[nH]c4C(F)(F)F)ccn3)c1)CCC2 (stereo not shown) [Example 101, 2-{1-[(7-fluoro-1,2,3,4-tetrahydronaphthalen-1-yl)methyl]-1H-imidazol-4-yl}-4-[5-(trifluoromethyl)-1H-1,2,3-triazol-4-yl]pyridine] | > 10 | > 10
13 | Cc1ccc2c(c1)CCCC2Cn1cnc(-c2cc(-c3nn[nH]c3C(F)(F)F)ccn2)c1 (stereo not shown) [Example 102, 2-{1-[(6-methyl-1,2,3,4-tetrahydronaphthalen-1-yl)methyl]-1H-imidazol-4-yl}-4-[5-(trifluoromethyl)-1H-1,2,3-triazol-4-yl]pyridine] | > 10 | > 10
14 | Fc1cccc(CCn2cnc(-c3cc(-c4nn[nH]c4C(F)(F)F)ccn3)c2)c1 [Example 78, 2-{1-[2-(3-fluorophenyl)ethyl]-1H-imidazol-4-yl}-4-[5-(trifluoromethyl)-1H-1,2,3-triazol-4-yl]pyridine] | 1 to 10 | > 10
15 | Fc1ccc2c(c1)CCCC2Cn1cnc(-c2cc(-c3nn[nH]c3C(F)(F)F)ccn2)c1 (stereo not shown) [Example 100, 2-{1-[(6-fluoro-1,2,3,4-tetrahydronaphthalen-1-yl)methyl]-1H-imidazol-4-yl}-4-[5-(trifluoromethyl)-1H-1,2,3-triazol-4-yl]pyridine] | > 10 | > 10
16 | FC(F)(F)c1[nH]nnc1-c1ccnc(-c2cn(CCc3ccc(Cl)cc3)cn2)c1 [Example 92, 2-{1-[2-(4-chlorophenyl)ethyl]-1H-imidazol-4-yl}-4-[5-(trifluoromethyl)-1H-1,2,3-triazol-4-yl]pyridine] | > 10 | > 10
17 | Fc1ccc(Cn2cnc(-c3cc(-c4nn[nH]c4C(F)(F)F)ccn3)c2)cc1 [Example 61, 2-{1-[(4-fluorophenyl)methyl]-1H-imidazol-4-yl}-4-[5-(trifluoromethyl)-1H-1,2,3-triazol-4-yl]pyridine] | > 10 | > 10
